{
  "source": "patent US20090081170A1",
  "about": "“Cardiac progenitor cells” (priority 2007, published 2009)",
  "assay_type_in_all_cases": "cell-based, mouse",
  "key": {"[1]": {"test_system": "Akt (P-Ser 473)", "assay": "Tβ4 treatment of C2C12 myoblast cells, Akt phosphorylation", "details": "C2C12 myoblasts, Tβ4 10 ng/ml", "experimental": "Western blotting was performed using standard methods (Tris-Tricine 4-20% gradient SDS-PAGE for blotting of Tβ4 or Tβ10 peptides and Tris-glycine SDS-PAGE for all other proteins) using antibodies against Tβ4 (abcam), Tβ10 (Biodesign International), Tie-2 (Santa Cruz), SMαA (Sigma), GAPDH (Chemicon), Caspase-8 (Santa Cruz), Cleaved caspase-3, total Akt and Phospho-Akt (both Cell Signalling Technology).\nC2C12 cells were cultured in DMEM containing 10% FBS. Tβ4 (10 ng/ml, mmundiagnostik AG) was added and cells harvested over a time course to assess the degree of phosphorylation (activation) of Akt."}, "[2]": {"test_system": "epicardial explants from E10.5 hearts", "assay": "Embryonic epicardial explant cultures", "details": "E10.5 explants", "source_text": "In order to support our in vivo phenotype analyses and assess a direct effect of Tβ4 on developing epicardium, we established epicardial explant cultures from wild-type hearts13. We initially derived epicardial explants from stages E10.5 to E16.5 and postnatal day 1 (P1) neonates, treated with either, Tβ4, with VEGF and FGF7 [59], or a combination of Tβ4 and growth factors. Explants from E10.5 hearts, coincident with the formation of the epicardium, produced extensive outgrowths that differentiated into SMαA- and Tie2-positive cells (FIG. 3 b)."}, "[3]": {"test_system": "adult heart explants (adult EPDCs)", "assay": "Adult epicardial explant culture: EPDC outgrowth and differentiation", "experimental": "A simple protocol for the outgrowth and differentiation of vasculogenic precursor cells (endothelial and vascular smooth muscle cells) from adult heart using Thymosin β4 to stimulate epicardial cell migration is described below.\n• 1. Coat 6-well plates with gelatin: pipette 2 ml 0.1% gelatin solution, allow to stand for 15 minutes and aspirate. Optionally, place coverslips into wells, prior to gelatin coating. • 2. Cull adult mouse by cervical dislocation. • 3. Using sterile forceps and scissors make a lateral incision in the centre of the abdomen and tear back the fur to expose the rib cage. • 4. Carefully cut upwards through the sternum and along the diaphragm, taking care not to cut into the heart. Pull back the ribs to reveal the heart. • 5. Remove the heart using forceps and dissect away the atria and major vessels, to leave right and left ventricles. • 6. Place tissue in a 60 mm tissue culture dish (non gelatin coated) containing 2 ml DPBS. Cut into quarters and allow blood to rinse from the tissue. Carefully aspirate away DPBS. Using a sterile scalpel, cut the heart into pieces of approximately 1 mm^3. Reproducible EPDC outgrowth strongly depends upon the size of the heart pieces (optimally 1 mm^3). Larger pieces will not adhere to permit sufficient migration while smaller pieces tend to dissociate completely and cardiomyocyte death precedes adherence and EPDC outgrowth. • 7. Divide heart pieces into 4 equal portions (1 adult heart is typically divided between 4 wells for optimal EPDC outgrowth). • 8. Pipette 2 ml of EPDC culture medium, supplemented with 100 ng/ml Tβ4, into each well to be used. • 9. Place 1 portion of heart tissue into the centre of each well and ensure that all pieces are submerged. • 10. Gently transfer the plate to a humidified 5% CO2 37° C. incubator. Maintain cultures with minimum disturbance to allow explants to adhere. No feeding is required for the first 72 hours. Minimal disturbance is absolutely essential for EPDC outgrowth. Explants adhere only tenuously in the first instance and disturbance in the first few days of culture will prevent adhesion or lead to detachment. Plates should be transferred extremely cautiously between incubator and microscope or culture hood. After sufficient EPDCs have emerged, explants attach more firmly but care is still required as detachment may easily occur. • 11. After 72 hours in culture, carefully transfer plate to culture hood, wash explants gently with DPBS and add 2 ml fresh EPDC medium containing 100 ng/ml Tβ4. Leave for a further 24 hours before assessment of cellular phenotype.\n• 1. Culture adult heart explants as described above. • 2. After 72 hours of culture, fix cells with 4% PFA for 10 minutes at room temperature. • 3. Wash cells twice with PBS. • 4. Permeabilise cells with 0.5% Triton X-100 in PBS for 5 minutes at room temperature. • 5. Wash cells twice with PBS. • 6. Block non-specific binding by incubating cells in BLOCK (1% BSA/10% sheep serum in PBS) for 1 hour at room temperature. • 7. Incubate cells with an appropriate dilution of primary antibody (epicardin, 1:100; SMalphaA, 1:700; Flk1, 1:100), or Procollagen type I, 1:100), in BLOCK. • 8. Wash cells 3 times using BLOCK. • 9. Incubate cells with the appropriate secondary antibody (epicardin: Cy3-conjugated anti-rabbit; SMalphaA: FITC-conjugated anti-mouse, 1:30; Procollagen type I: Alexa 488-conjugated anti-goat, 1:200; Flk1: Alexa 594-conjugated anti-rat, 1:200) diluted in BLOCK. • 10. Wash cells twice in PBS. • 11. Optionally, to stain nuclei, incubate with 5 ug/ml Hoechst in PBS for 5 minutes at room temperature. • 12. Wash cells twice in PBS. • 13. Mount coverslips onto microscope slides using 50% glycerol in PBS as mountant and visualize using a fluorescence microscope. […]"}},
  "data": [
    {"substance": "Thymosin β4 [Tβ4]", "values": [
      {"measurement": "time to Akt activation (P-Ser 473)", "setting": "[1]", "value": "≤ 10", "unit": "min"},
      {"measurement": "numbers of SMαA- and Tie2-positive cells", "setting": "[2]", "value": "significantly increased"},
      {"measurement": "percentage incidence of myocardial progenitors (cells positive for Isl-1/Nkx2.5/Gata4)", "setting": "[3]; Gata5-EYFP lineage trace explant cultures, mean +/− SEM, n=12 explants", "value": "5.3+/−1.9%"},
      {"measurement": "EPDCs positive for Tbx18 and Raldh2", "setting": "[3]; adult epicardial explants, immunofluorescence", "value": "significant number of proliferative, migrating EPDCs positive for Tbx18 and Raldh2"},
      {"measurement": "differentiation of emerging epicardin-positive cells", "setting": "[3]; adult explants, immunofluorescence", "value": "differentiated with migration into procollagen type I—, SMαA- and Flk1 (VEGF receptor)-positive cells"},
      {"measurement": "EPDC outgrowth from adult heart explants", "setting": "[3]; adult mouse heart explants, 8-12 weeks, vs untreated explants", "value": "stimulated extensive outgrowth of cells"}
    ]}
  ]
}
